# Assay: Solubility in ultrapure water when preparing peptide solutions
# Type: physicochemical
smiles,measurement,value
CC(=O)N[C@@H](CCCNC(=N)N)C(=O)N[C@@H](C)C(=O)N[C@@H](CC(=O)O)C(=O)N[C@@H](C)C(=O)N[C@@H](CCCNC(=N)N)C(=O)N[C@@H](C)C(=O)N[C@@H](CC(=O)O)C(=O)N[C@@H](C)C(=O)N[C@@H](CCCNC(=N)N)C(=O)N[C@@H](C)C(=O)N[C@@H](CC(=O)O)C(=O)N[C@@H](C)C(=O)N[C@@H](CCCNC(=N)N)C(=O)N[C@@H](C)C(=O)N[C@@H](CC(=O)O)C(=O)N[C@@H](C)C(N)=O [(RADA)4],solubility in water,did not completely dissolve at a concentration of 2% by weight or higher

# Source: patent US20170119844A1, “HEMOSTATIC PHARMACEUTICAL COMPOSITION” (OTSUKA CHEMICAL CO., LTD., priority 2014, published 2017)
